# From ChEMBL document CHEMBL1921708, “Klymollins A-H, bioactive eunicellin-based diterpenoids from the formosan soft coral Klyxum molle” (J Nat Prod, 2011)
# Experiments:
# [1] = tested on: RAW264.7; assay: Antiinflammatory activity in LPS-stimulated mouse RAW264.7 cells assessed as reduction in iNOS protein expression at 10 uM by immunoblot analysis; assay type: functional; design: scale not given: the % may be the effect or the level left
# [2] = tested on: MCF7; assay: Cytotoxicity against human MCF7 cells; assay type: cell-based
# [3] = tested on: HeLa; assay: Cytotoxicity against human HeLa cells; assay type: cell-based
# [4] = tested on: HEp-2; assay: Cytotoxicity against human Hep2 cells; assay type: cell-based
# [5] = tested on: Daoy; assay: Cytotoxicity against human DaOY cells; assay type: cell-based
# [6] = tested on: RAW264.7; assay: Antiinflammatory activity in LPS-stimulated mouse RAW264.7 cells assessed as reduction in COX2 protein expression at 10 uM by immunoblot analysis; assay type: functional; design: scale not given: the % may be the effect or the level left
SMILES,Activity [1],Activity [2],Activity [3],Activity [4],Activity [5],Activity [6]
C=C1C[C@H]2O[C@H]([C@H]3[C@@H]2[C@]2(CO2)[C@@H](OC(C)=O)C[C@@H]3C(C)C)[C@](C)(OC(C)=O)CC[C@@H]1O (relative stereo),25.1%,Non-toxic,Non-toxic,Non-toxic,Non-toxic,–
CC(=O)O[C@H]1[C@H](C(C)C)[C@@H]2[C@@H]([C@H]3C[C@](C)(O)[C@@H](OC(C)=O)CC[C@@](C)(OC(C)=O)[C@@H]2O3)[C@]2(CO2)[C@H]1OC(C)=O (relative stereo),25.7%,Non-toxic,Non-toxic,Non-toxic,Non-toxic,–
CCCCCCCCCCCCCCCC(=O)O[C@H]1CC[C@@](C)(OC(C)=O)[C@@H]2O[C@H](C[C@]1(C)O)[C@@H]1[C@H]2[C@@H](C(C)C)[C@H](OC(C)=O)[C@H](OC(C)=O)[C@@]12CO2 (relative stereo),5.2%,Non-toxic,Non-toxic,Non-toxic,Non-toxic,4.4%
CC(=O)O[C@H]1[C@H](C(C)C)[C@@H]2[C@@H]([C@H]3C[C@](C)(O)[C@@H](OC=O)CC[C@@](C)(OC(C)=O)[C@@H]2O3)[C@]2(CO2)[C@H]1OC(C)=O [KLYMOLLIN H],32.6%,Non-toxic,Non-toxic,Non-toxic,Non-toxic,–
C=C1C[C@H]2O[C@H]([C@@H]3[C@@H](C(C)C)[C@H](OC(C)=O)[C@H](OC(C)=O)[C@@]4(CO4)[C@@H]32)[C@](C)(OC(C)=O)CC[C@@H]1O (relative stereo),42.1%,Non-toxic,Non-toxic,Non-toxic,Non-toxic,–
CCCCCCCCCCCCCC(=O)O[C@H]1CC[C@@](C)(OC(C)=O)[C@@H]2O[C@H](C[C@]1(C)O)[C@@H]1[C@H]2[C@@H](C(C)C)[C@H](OC(C)=O)[C@H](OC(C)=O)[C@@]12CO2 (relative stereo),6%,Non-toxic,Non-toxic,Non-toxic,Non-toxic,8.5%
CC(=O)O[C@H]1[C@H](C(C)C)[C@@H]2[C@@H]([C@H]3C[C@@H](C)C(=O)CC[C@@](C)(OC(C)=O)[C@@H]2O3)[C@](O)(CCl)[C@H]1OC(C)=O [KLYMOLLIN A],–,Non-toxic,Non-toxic,Non-toxic,Non-toxic,–
CC(=O)O[C@H]1[C@H](C(C)C)[C@@H]2[C@@H]([C@H]3C[C@H](C)C(=O)CC[C@@](C)(OC(C)=O)[C@@H]2O3)[C@](O)(CCl)[C@H]1OC(C)=O [KLYMOLLIN B],–,Non-toxic,Non-toxic,Non-toxic,Non-toxic,–
